Broadly, the Emax is the maximal effect, on the per cent scale that the assay sets.

Molecules are shown by their SMILES. Where only a bound is given, the exact number is not on record here.

This is an account of results in patent US11999745B2, “Pharmaceutical compounds” (Heptares Therapeutics Limited, priority 2020, dated 2024).

Assay type in all cases: cell-based
The target in test [1] is T1, human muscarinic M4 receptor (Homo sapiens, UniProt P08173).
T1 construct: expressed in transfected cells
T1 sequence (P08173 1-479): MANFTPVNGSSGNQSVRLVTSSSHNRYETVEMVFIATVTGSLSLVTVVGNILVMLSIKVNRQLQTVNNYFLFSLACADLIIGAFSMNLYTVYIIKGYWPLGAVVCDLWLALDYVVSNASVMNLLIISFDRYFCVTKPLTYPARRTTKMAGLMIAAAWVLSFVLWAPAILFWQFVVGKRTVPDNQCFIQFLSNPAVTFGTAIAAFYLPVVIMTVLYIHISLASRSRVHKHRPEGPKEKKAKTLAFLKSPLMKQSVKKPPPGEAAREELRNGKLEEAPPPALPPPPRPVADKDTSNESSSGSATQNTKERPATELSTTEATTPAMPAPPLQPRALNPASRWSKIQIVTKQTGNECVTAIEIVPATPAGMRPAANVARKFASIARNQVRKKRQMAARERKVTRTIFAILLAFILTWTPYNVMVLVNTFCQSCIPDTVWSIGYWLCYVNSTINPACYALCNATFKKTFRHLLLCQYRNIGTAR
As to the kind of experiment: Alphascreen Surefire phospho-ERK1/2 functional assay, M4. The conditions noted are these: for Emax: CHO cells stably expressing human M4, read-out: % Emax cf. ACh, M4. The procedure:
(§1) ERK1/2 phosphorylation is a downstream consequence of both Gq/11 and Gi/o protein coupled receptor activation, making it highly suitable for the assessment of M1, M3 (Gq/11 coupled) and M2, M4 receptors (Gi/o coupled), rather than using different assay formats for different receptor subtypes. CHO cells stably expressing the human muscarinic M1, M2, M3 or M4 receptor were plated (25K/well) onto 96-well tissue culture plates in MEM-alpha+10% dialysed FBS. Once adhered, cells were serum-starved overnight. Agonist stimulation was performed by the addition of 5 μL agonist to the cells for 5 min (37° C.). Media was removed and 50 μL of lysis buffer added.
In general terms: Alpha assays give light when donor and acceptor beads are brought close together.

Test [2] concerns the target T2, human muscarinic M3 receptor (Homo sapiens, UniProt P20309).
T2 construct: expressed in transfected cells
As to the kind of experiment: Alphascreen Surefire phospho-ERK1/2 functional assay, M3. Particulars: for Emax: CHO cells stably expressing human M3, read-out: % Emax cf. ACh, M3. The procedure:
as §1

The target of test [3] is T3, human muscarinic M1 receptor (Homo sapiens, UniProt P11229).
T3 construct: expressed in transfected cells
T3 sequence (P11229 1-460): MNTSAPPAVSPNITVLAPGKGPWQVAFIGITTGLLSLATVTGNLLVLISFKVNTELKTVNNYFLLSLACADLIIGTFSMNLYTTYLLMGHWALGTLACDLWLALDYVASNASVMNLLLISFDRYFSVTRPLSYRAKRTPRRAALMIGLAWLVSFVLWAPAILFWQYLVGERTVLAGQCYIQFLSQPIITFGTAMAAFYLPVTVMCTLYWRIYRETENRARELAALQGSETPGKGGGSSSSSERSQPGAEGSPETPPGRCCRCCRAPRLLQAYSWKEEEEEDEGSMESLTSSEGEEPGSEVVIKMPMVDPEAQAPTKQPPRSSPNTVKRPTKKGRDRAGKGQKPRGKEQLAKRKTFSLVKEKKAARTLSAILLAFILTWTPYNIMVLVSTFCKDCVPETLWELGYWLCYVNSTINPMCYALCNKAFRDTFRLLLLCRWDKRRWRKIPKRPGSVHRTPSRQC
As to the kind of experiment: Alphascreen Surefire phospho-ERK1/2 functional assay, M1. Particulars: CHO cells stably expressing human M1, phospho-ERK1/2. The procedure: as §1

For test [4], the target named is T4, human muscarinic M2 receptor (Homo sapiens, UniProt P08172).
T4 construct: expressed in transfected cells
T4 sequence (P08172 1-466): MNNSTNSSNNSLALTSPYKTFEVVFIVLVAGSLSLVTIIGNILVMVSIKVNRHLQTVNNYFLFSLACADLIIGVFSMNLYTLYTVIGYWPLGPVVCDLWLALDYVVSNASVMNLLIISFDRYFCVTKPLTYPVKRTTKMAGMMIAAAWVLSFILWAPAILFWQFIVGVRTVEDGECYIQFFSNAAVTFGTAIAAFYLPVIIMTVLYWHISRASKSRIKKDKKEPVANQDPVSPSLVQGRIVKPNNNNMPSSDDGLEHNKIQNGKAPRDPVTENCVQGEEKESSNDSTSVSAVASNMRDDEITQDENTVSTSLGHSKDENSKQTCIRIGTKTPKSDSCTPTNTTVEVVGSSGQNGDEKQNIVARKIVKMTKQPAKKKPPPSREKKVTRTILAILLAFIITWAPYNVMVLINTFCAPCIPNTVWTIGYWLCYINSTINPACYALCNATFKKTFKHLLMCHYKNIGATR
As to the kind of experiment: Alphascreen Surefire phospho-ERK1/2 functional assay, M2. The procedure:
as §1

T2 sequence (P20309 whole entry): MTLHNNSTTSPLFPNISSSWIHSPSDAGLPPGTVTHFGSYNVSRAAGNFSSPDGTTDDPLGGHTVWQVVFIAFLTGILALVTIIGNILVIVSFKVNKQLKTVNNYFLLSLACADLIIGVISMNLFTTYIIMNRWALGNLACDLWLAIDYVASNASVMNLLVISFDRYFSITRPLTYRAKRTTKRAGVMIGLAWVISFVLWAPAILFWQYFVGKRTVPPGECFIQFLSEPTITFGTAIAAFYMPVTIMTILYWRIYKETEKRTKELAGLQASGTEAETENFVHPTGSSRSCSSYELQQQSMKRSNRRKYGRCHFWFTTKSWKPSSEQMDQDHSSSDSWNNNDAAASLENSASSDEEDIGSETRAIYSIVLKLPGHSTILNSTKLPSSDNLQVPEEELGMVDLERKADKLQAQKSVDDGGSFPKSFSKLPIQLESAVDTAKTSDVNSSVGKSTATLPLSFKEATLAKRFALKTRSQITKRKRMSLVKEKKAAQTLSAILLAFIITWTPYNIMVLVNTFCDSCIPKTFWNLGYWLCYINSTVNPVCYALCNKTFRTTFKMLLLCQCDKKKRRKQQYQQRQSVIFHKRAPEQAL

For `CC(=O)OCC[N+](C)(C)C` [Acetylcholine, reference compound], the Emax was 108% in test [1] and 102% in test [2].
Regarding `CC(C)(C)NC(=O)C1CCN([C@H]2C[C@H]3CC[C@@H](C2)N3c2nc(C(F)(F)F)no2)CC1.Cl` [Example 1-1, N-(tert-butyl)-1-((1R,3r,5S)-8-(3-(trifluoromethyl)-1,2,4-oxadiazol-5-yl)-8-azabicyclo[3.2.1]octan-3-yl)piperidine-4-carboxamide hydrochloride], the Emax amounted to 32% in test [1]; 92% in test [3] (read-out: % Emax cf. ACh, M1); 3% in test [2]; 7% in test [4] (CHO cells stably expressing human M2, read-out: % Emax cf. ACh, M2). Besides, the EC50 is 0.12 µM in test [1] (CHO cells stably expressing human M4, read-out: pEC50 M4 (converted)); above 20 µM in test [2] (CHO cells stably expressing human M3, read-out: pEC50 M3 (converted)); above 20 µM in test [4] (CHO cells stably expressing human M2, read-out: pEC50 M2 (converted)). Further, in test [3], the “pEC50 M1” value is 7.17.
